Earlier results, collected in publication PMC4415995 (Advances in Therapy, 2015).

Tested on: patients with T2DM
Conditions: cited from earlier work

Structure (SMILES): Cc1ccc([C@@H]2O[C@H](CO)[C@@H](O)[C@H](O)[C@H]2O)cc1Cc1ccc(-c2ccc(F)cc2)s1 [canagliflozin]
- maximal UGE: 85 to 100 g

Structure (SMILES): CCOc1ccc(Cc2cc([C@@H]3O[C@H](CO)[C@@H](O)[C@H](O)[C@H]3O)ccc2Cl)cc1 [dapagliflozin]
- maximal UGE: 85 to 100 g

Structure (SMILES): OC[C@H]1O[C@@H](c2ccc(Cl)c(Cc3ccc(O[C@H]4CCOC4)cc3)c2)[C@H](O)[C@@H](O)[C@@H]1O [empagliflozin]
- maximal UGE: 85 to 100 g

Structure (SMILES): OC[C@H]1O[C@@H](c2ccc(F)c(Cc3cc4ccccc4s3)c2)[C@H](O)[C@@H](O)[C@@H]1O [ipragliflozin]
- maximal UGE: 85 to 100 g
